From patent US10273239B2, “Spiro-lactam NMDA receptor modulators and uses thereof” (Aptinyx Inc., priority 2013, dated 2019) come the findings set out here.

Assay [1] relates to LTP. As to the kind of experiment: Unified Activity Data: LTP. Particulars: LTP Concentration 1 uM.
A short description of assay [2]: Unified Activity Data: Porsolt. The assay is classed as in vivo. Particulars: 3 mg/kg, IV, 1 hour post dose.
Assay [3] concerns the target T1, NMDA receptor (rat cortical membranes) (Rattus norvegicus, UniProt P35439).
T1 construct: well washed rat cortical membranes (200 μg); from tissue; host or cells: rat cerebral cortex membranes
As to the kind of experiment: [3H] MK-801 binding assay (potentiation of [3H]MK-801 binding). How it is done:
Assays were conducted as described in Moskal et al. (Moskal, J. R., Kuo, A. G., Weiss, C., Wood, P. L., O'Connor Hanson, A., Kelso, S., Harris, R. B., Disterhoft, J. F., 2005. GLYX-13: a monoclonal antibody-derived peptide that acts as an N-methyl-D-aspartate receptor modulator. Neuropharmacology. 49, 1077-87) The potentiation of [^3H]MK-801 binding (5 nM; 22.5 Ci/mmol) to well washed rat cortical membranes (200 μg) was measured under non-equilibrium conditions (15 min @ 25° C.) in the presence of increasing concentrations of test compounds and 50 μM glutamate. Zero levels were determined in the absence of any glycine ligand and in the presence of 30 μM 5,7 DCKA. Maximal stimulation was measured in the presence of 1 mM glycine, and 50 μM glutamate was present in all samples. The facilitation of [^3H]MK-801 binding by tests compounds was calculated by using a 3 parameter log agonist vs. response equation (Graph pad Prism, USA) and potency (EC50, expressed in pM) and maximal activity (% maximal stimulation) were calculated for the test compound.

pEC50: −log10 of the molar value.

Turning to `C[C@@H](O)[C@H](N)C(=O)N1CCCC12CNC2=O` (stereo partly drawn) [Compound 4S-FNL-1, 5-((2S,3R)-2-amino-3-hydroxybutanoyl)-2,5-diazaspiro [3.4] octan-1-one], the “Unified Activity Data: LTP Augmentation (Percent)” value in assay [1] is recorded as 80%. In assay [2], the “Unified Activity Data: Porsolt Floating Time Inhibition (Percent)” value came out at 70%.

Regarding `C[C@@H](O)[C@H](NC(=O)OC(C)(C)C)C(=O)N1CCCC12CNC2=O` (stereo in doubt) [Compound 4S-FNL-2, tert-butyl (3-hydroxy-1-oxo-1-(1-oxo-2,5-diazaspiro [3.4]octan-5-yl)butan-2-yl)carbamate], in assay [3], the pEC50 (usually the negative decadic logarithm of the EC50, by convention in mol/L) was 10.26.
